{"source": "patent US9901592B2", "about": "(priority 2008, dated 2018)", "key": {"group A streptococci": {"tested_on": "group A streptococci", "experiment": "microbe, parasite or virus in culture", "type": "cell-based, S. pyogenes", "conditions": "Streptococcus pyogenes"}, "Mycobacterium bovis BCG": {"tested_on": "Mycobacterium bovis BCG", "type": "cell-based"}, "pneumococci": {"tested_on": "pneumococci", "experiment": "microbe, parasite or virus in culture", "type": "cell-based, S. pneumoniae", "conditions": "Streptococcus pneumoniae"}, "S. aureus": {"tested_on": "S. aureus", "type": "cell-based"}, "[1]": {"tested_on": "ribosome erm-dimethylated at A2058", "experiment": "binding to the ribosome"}, "S. pneumoniae": {"tested_on": "S. pneumoniae", "type": "cell-based"}, "Legionella pneumophila": {"tested_on": "Legionella pneumophila", "experiment": "microbe, parasite or virus in culture", "type": "cell-based, L. pneumophila"}, "N. meningitidis": {"tested_on": "N. meningitidis", "experiment": "MIC, CLSI broth microdilution, invasive isolates", "type": "cell-based", "description": "Example. […] Colonization of the nasopharynx (NP) by NM can lead to invasive meningococcal disease. Chemoprophylaxis is used to eradicate NP colonization and prevent transmission to nonimmune contacts. […] 62 isolates (91.9% blood culture) of NM were collected from 29 medical centers in North and South America and Europe (1997-2008). […] Serological identification was performed for serogroups (SGs) B, C, Y and W135."}, "[2]": {"conditions": "Neisseria meningitidis, 62 N. meningitidis isolates"}}, "note": "Marks after values point to notes of the source that are not given here.", "data": [{"compound": "COc1c(N2C[C@@H]3CCCN[C@@H]3C2)c(F)cc2c(=O)c(C(=O)O)cn(C3CC3)c12", "note": "[moxifloxacin]", "values": [{"measurement": "MIC50", "setting": "group A streptococci", "result": 0.25, "unit": "µg/mL"}, {"measurement": "MIC90", "setting": "group A streptococci", "result": 0.25, "unit": "µg/mL"}, {"measurement": "activity during growth arrest relative to gatifloxacin", "setting": "Mycobacterium bovis BCG; growth-arrested cells", "result": 2, "unit": "fold"}, {"measurement": "MIC50", "setting": "pneumococci; pneumococci, L4 mutations (27)", "result": 0.25, "unit": "µg/mL"}, {"measurement": "MIC90", "setting": "pneumococci; pneumococci, L4 mutations (27)", "result": 0.5, "unit": "µg/mL"}, {"measurement": "MIC", "setting": "pneumococci; read-out: MIC range, pneumococci, L4 mutations (27)", "result": "0.125 to 4", "unit": "µg/mL"}]}, {"compound": "CC[C@H]1OC(=O)[C@H](C)[C@@H](OC2CC(C)(OC)C(O)C(C)O2)[C@H](C)[C@@H](OC2OC(C)CC(N(C)C)C2O)[C@@](C)(OC)C[C@@H](C)C(=O)[C@H](C)[C@H]2N(CCCCn3cc(-c4cccc(N)c4)nn3)C(=O)O[C@]12C", "note": "(stereo partly drawn) [Entry 20c]", "values": [{"measurement": "MIC", "setting": "S. aureus", "result": 8, "unit": "µg/mL"}, {"measurement": "binding to the ribosome", "setting": "[1]", "result": "considerable binding"}, {"measurement": "MIC", "setting": "S. pneumoniae", "result": "≦0.0625 μg/mL"}]}, {"compound": "CO[C@H]1/C=C/O[C@@]2(C)Oc3c(C)c(O)c4c(O)c(c(/C=N/N5CCN(C)CC5)c(O)c4c3C2=O)NC(=O)/C(C)=C\\C=C\\[C@H](C)[C@H](O)[C@@H](C)[C@@H](O)[C@@H](C)[C@H](OC(C)=O)[C@@H]1C", "note": "[Rifampin]", "values": [{"measurement": "MIC Range", "setting": "Legionella pneumophila; LPN (30)", "result": "0.03-0.06^a μg/ml"}, {"measurement": "MIC50", "setting": "Legionella pneumophila; Legionella pneumophila", "result": 0.03, "unit": "µg/mL"}, {"measurement": "MIC90", "setting": "Legionella pneumophila; Legionella pneumophila", "result": 0.03, "unit": "µg/mL"}, {"measurement": "reduction of lethality by growth arrest", "setting": "Mycobacterium bovis BCG; DETA-NO-induced growth arrest", "result": "no effect"}, {"measurement": "% Res.", "setting": "N. meningitidis; CLSI (M100-S19, 2009) criteria", "result": 0.0, "unit": "%"}, {"measurement": "% Susc.", "setting": "N. meningitidis; CLSI (M100-S19, 2009) criteria", "result": 100.0, "unit": "%"}, {"measurement": "MIC", "setting": "N. meningitidis; [2]", "result": "0.008 to 0.12", "unit": "µg/mL"}, {"measurement": "MIC50", "setting": "N. meningitidis; [2]", "result": 0.015, "unit": "µg/mL"}, {"measurement": "MIC90", "setting": "N. meningitidis; [2]", "result": 0.06, "unit": "µg/mL"}]}]}
